What was measured:
Assay in all cases: relative viability (nuclei count vs DMSO), 5 days (fraction); higher = more cells survive
NCI-H460 = test system: NCI-H460
Outline: (§1)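 Cells from lung cancer lines were seeded into 1536-well plates and, one day later, dosed by pin tool. Treatments were either a single drug or a fixed dose of an anchor drug with five library-drug doses (not always all listed) in √10 steps. After 5 days, nuclei were stained in a one-step fixation (final 0.05% Triton X-100, 1% formaldehyde, 1 ug/ml Hoechst) and counted on 4× images, and relative viability is the treated-to-vehicle nuclei ratio, as the median of duplicate plates.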

LC-2-ad = test system: LC-2-ad
Outline: as §1

HCC-15 = test system: HCC-15
Outline: as §1

NCI-H650 = test system: NCI-H650
Outline: as §1

NCI-H661 = test system: NCI-H661
Outline: as §1

NCI-H1651 = test system: NCI-H1651
Outline: as §1

NCI-H1792 = test system: NCI-H1792
Outline: as §1

A-427 = test system: A-427
Outline: as §1

PC-3 [JPC-3] = test system: PC-3 [JPC-3]
Outline: as §1

NCI-H596 = test system: NCI-H596
Outline: as §1

201T = test system: 201T
Outline: as §1

NCI-H441 = test system: NCI-H441
Outline: as §1

NCI-H2023 = test system: NCI-H2023
Outline: as §1

NCI-H520 = test system: NCI-H520
Outline: as §1

NCI-H2087 = test system: NCI-H2087
Outline: as §1

BEN = test system: BEN
Outline: as §1

NCI-H1915 = test system: NCI-H1915
Outline: as §1

NCI-H1944 = test system: NCI-H1944
Outline: as §1

LCLC-97TM1 = test system: LCLC-97TM1
Outline: as §1

H3255 = test system: H3255
Outline: as §1

CAL-12T = test system: CAL-12T
Outline: as §1

NCI-H727 = test system: NCI-H727
Outline: as §1

NCI-H1650 = test system: NCI-H1650
Outline: as §1

SMILES: COc1cc(N2CCC(C(N)=O)CC2)ccc1Nc1nc(N)c(Cl)c(Nc2ccccc2S(=O)(=O)C(C)C)n1 [HG-5-88-01] + CC(=O)Nc1cccc(-n2c(=O)n(C3CC3)c(=O)c3c(Nc4ccc(I)cc4F)n(C)c(=O)c(C)c32)c1 [Trametinib] (partner 0.02 µM)
- relative viability (NCI-H460; first compound 0.04 µM): 0.131
- relative viability (NCI-H460; first compound 0.1265 µM): 0.124
- relative viability (NCI-H460; first compound 0.4 µM): 0.13
- relative viability (NCI-H460; first compound 1.265 µM): 0.0779
- relative viability (NCI-H460; first compound 4 µM): 0.123
- relative viability (LC-2-ad; first compound 0.04 µM): 0.934
- relative viability (LC-2-ad; first compound 0.1265 µM): 0.86
- relative viability (LC-2-ad; first compound 0.4 µM): 0.865
- relative viability (LC-2-ad; first compound 1.265 µM): 0.896
- relative viability (LC-2-ad; first compound 4 µM): 0.993
- relative viability (HCC-15; first compound 0.04 µM): 0.372
- relative viability (HCC-15; first compound 0.1265 µM): 0.359
- relative viability (HCC-15; first compound 0.4 µM): 0.36
- relative viability (HCC-15; first compound 1.265 µM): 0.314
- relative viability (HCC-15; first compound 4 µM): 0.251
- relative viability (NCI-H650; first compound 0.04 µM): 1.09
- relative viability (NCI-H650; first compound 0.1265 µM): 1.11
- relative viability (NCI-H650; first compound 0.4 µM): 0.987
- relative viability (NCI-H650; first compound 1.265 µM): 0.696
- relative viability (NCI-H650; first compound 4 µM): 0.786
- relative viability (NCI-H661; first compound 0.04 µM): 0.591
- relative viability (NCI-H661; first compound 0.1265 µM): 0.666
- relative viability (NCI-H661; first compound 0.4 µM): 0.573
- relative viability (NCI-H661; first compound 1.265 µM): 0.554
- relative viability (NCI-H661; first compound 4 µM): 0.608
- relative viability (NCI-H1651; first compound 0.04 µM): 0.918
- relative viability (NCI-H1651; first compound 0.1265 µM): 0.862
- relative viability (NCI-H1651; first compound 0.4 µM): 0.799
- relative viability (NCI-H1651; first compound 1.265 µM): 0.744
- relative viability (NCI-H1651; first compound 4 µM): 0.957
- relative viability (NCI-H1792; first compound 0.04 µM): 0.444
- relative viability (NCI-H1792; first compound 0.1265 µM): 0.535
- relative viability (NCI-H1792; first compound 0.4 µM): 0.401
- relative viability (NCI-H1792; first compound 1.265 µM): 0.432
- relative viability (NCI-H1792; first compound 4 µM): 0.576
- relative viability (A-427; first compound 0.04 µM): 0.8
- relative viability (A-427; first compound 0.1265 µM): 0.754
- relative viability (A-427; first compound 0.4 µM): 0.749
- relative viability (A-427; first compound 1.265 µM): 0.662
- relative viability (A-427; first compound 4 µM): 0.487
- relative viability (PC-3 [JPC-3]; first compound 0.04 µM): 0.708
- relative viability (PC-3 [JPC-3]; first compound 0.1265 µM): 0.738
- relative viability (PC-3 [JPC-3]; first compound 0.4 µM): 0.684
- relative viability (PC-3 [JPC-3]; first compound 1.265 µM): 0.448
- relative viability (PC-3 [JPC-3]; first compound 4 µM): 0.361
- relative viability (NCI-H596; first compound 0.04 µM): 0.901
- relative viability (NCI-H596; first compound 0.1265 µM): 0.794
- relative viability (NCI-H596; first compound 0.4 µM): 0.75
- relative viability (NCI-H596; first compound 1.265 µM): 0.808
- relative viability (NCI-H596; first compound 4 µM): 0.778
- relative viability (201T; first compound 0.04 µM): 0.697
- relative viability (201T; first compound 0.1265 µM): 0.699
- relative viability (201T; first compound 1.265 µM): 0.694
- relative viability (201T; first compound 4 µM): 0.782
- relative viability (NCI-H441; first compound 0.04 µM): 0.543
- relative viability (NCI-H441; first compound 0.1265 µM): 0.428
- relative viability (NCI-H441; first compound 0.4 µM): 0.455
- relative viability (NCI-H441; first compound 1.265 µM): 0.345
- relative viability (NCI-H441; first compound 4 µM): 0.336
- relative viability (NCI-H2023; first compound 0.04 µM): 0.563
- relative viability (NCI-H2023; first compound 0.1265 µM): 0.535
- relative viability (NCI-H2023; first compound 0.4 µM): 0.475
- relative viability (NCI-H2023; first compound 1.265 µM): 0.364
- relative viability (NCI-H2023; first compound 4 µM): 0.2
- relative viability (NCI-H520; first compound 0.04 µM): 0.568
- relative viability (NCI-H520; first compound 0.1265 µM): 0.831
- relative viability (NCI-H520; first compound 0.4 µM): 0.617
- relative viability (NCI-H520; first compound 1.265 µM): 0.74
- relative viability (NCI-H520; first compound 4 µM): 0.634
- relative viability (NCI-H2087; first compound 0.04 µM): 0.238
- relative viability (NCI-H2087; first compound 0.1265 µM): 0.218
- relative viability (NCI-H2087; first compound 0.4 µM): 0.194
- relative viability (NCI-H2087; first compound 1.265 µM): 0.15
- relative viability (NCI-H2087; first compound 4 µM): 0.164
- relative viability (BEN; first compound 0.04 µM): 1.04
- relative viability (BEN; first compound 0.1265 µM): 1.12
- relative viability (BEN; first compound 0.4 µM): 1.16
- relative viability (BEN; first compound 1.265 µM): 0.76
- relative viability (BEN; first compound 4 µM): 1.06
- relative viability (NCI-H1915; first compound 0.04 µM): 0.327
- relative viability (NCI-H1915; first compound 0.1265 µM): 0.338
- relative viability (NCI-H1915; first compound 0.4 µM): 0.353
- relative viability (NCI-H1915; first compound 1.265 µM): 0.313
- relative viability (NCI-H1915; first compound 4 µM): 0.317
- relative viability (NCI-H1944; first compound 0.04 µM): 0.386
- relative viability (NCI-H1944; first compound 0.1265 µM): 0.48
- relative viability (NCI-H1944; first compound 0.4 µM): 0.396
- relative viability (NCI-H1944; first compound 1.265 µM): 0.398
- relative viability (NCI-H1944; first compound 4 µM): 0.398
- relative viability (LCLC-97TM1; first compound 0.04 µM): 0.154
- relative viability (LCLC-97TM1; first compound 0.1265 µM): 0.211
- relative viability (LCLC-97TM1; first compound 0.4 µM): 0.188
- relative viability (LCLC-97TM1; first compound 1.265 µM): 0.147
- relative viability (LCLC-97TM1; first compound 4 µM): 0.136
- relative viability (H3255; first compound 0.04 µM): 0.563
- relative viability (H3255; first compound 0.1265 µM): 0.697
- relative viability (H3255; first compound 0.4 µM): 0.619
- relative viability (H3255; first compound 4 µM): 0.539
- relative viability (CAL-12T; first compound 0.04 µM): 0.377
- relative viability (CAL-12T; first compound 0.1265 µM): 0.378
- relative viability (CAL-12T; first compound 0.4 µM): 0.3
- relative viability (CAL-12T; first compound 1.265 µM): 0.227
- relative viability (CAL-12T; first compound 4 µM): 0.201
- relative viability (NCI-H727; first compound 0.04 µM): 0.379
- relative viability (NCI-H727; first compound 0.1265 µM): 0.394
- relative viability (NCI-H727; first compound 0.4 µM): 0.399
- relative viability (NCI-H727; first compound 4 µM): 0.364
- relative viability (NCI-H1650; first compound 0.04 µM): 0.586
- relative viability (NCI-H1650; first compound 0.1265 µM): 0.633
- relative viability (NCI-H1650; first compound 0.4 µM): 0.559
- relative viability (NCI-H1650; first compound 1.265 µM): 0.386
- relative viability (NCI-H1650; first compound 4 µM): 0.532

From the supplement of paper PMC10307832
